Test results published in patent US11859242B2, “Template-directed nucleic acid targeting compounds” (Carnegie Mellon University, priority 2017, dated 2024).
Entries after “also recorded” stand apart in the source; their conditions may differ.

Legend:
[1] = tested on: RNA targets containing hexameric r(CUGCUG)-repeats (T1-T8); assay: UV melting experiments of MPγPNA probes with RNA targets; type: binding; settings: for differences in the Tms of RNAs with mismatched probes: single (P5) and double (P6) base mismatch probes; for trend of Tms with number of binding-sites in the targets: 10 mM NaPi, 150 mM KCl, 2 mM MgCl2, pH 7.4, 8 μM strand concentration
Protocol: FIG. 7. UV-melting profiles of PI through P4 with T6. The concentration of T6 was 1 μM and that of each probe was 6 μM, prepared in a physiologically relevant buffer.
FIG. 8. UV-melting profiles of P4-RNA heteroduplexes in a physiologically relevant buffer at 8 μM strand concentration. The samples were prepared by mixing 8 μM of P4 with the respective RNA targets at the following concentrations: T1=8.0 μM, T2=4.0 μM, T4=2.0 μM, T6=1.3 μM, T8=1.0 μM in a physiological buffer and annealed at 90° C. for 5 min, followed by a gradual cooling to room temperature.
FIG. 9. UV-melting transitions of RNAs and the corresponding probe-RNA heteroduplexes containing the perfectly-matched and mismatched sequences as a function of the number of r(CUGCUG)n-binding-sites in the targets. Inset: UV-melting profiles Of RNA with P5 and P6 containing single and double base-mismatches, respectively.
UV Melting Experiments: All UV-melting samples were prepared by mixing MPγPNA with RNA targets at the indicated concentrations in a physiologically simulated buffer (10 mM NaPi (sodium phosphate buffer), 150 mM KCl, 2 mM MgCl2; pH 7-4), and annealed by incubation at 90° C. for 5 min followed by a gradual cooling to room temperature. UV melting curves were collected using Agilent Cary UV-Vis 300 spectrometer equipped with a thermoelectrically controlled multi-cell holder. UV-melting spectra were collected by monitoring UV-absorption at 260 nm from 25° C. to 95° C. in the heating runs, and from 95° C. to 25° C. in the cooling runs, both at the rate of 0.2° C. per min. […] The recorded spectra were smoothed using a 20-point adjacent averaging algorithm. The first derivatives of the melting curves were taken to determine the melting temperatures of the duplex.
All the experiments were conducted at a physiologically relevant ionic strength (10 mM NaPi, 150 mM KCl, and 2 mM MgCl2 at pH 7.4). RNA concentrations were prepared such that the number of r(CUGCUG)-repeats in each sample was the same. […] Based on this finding, we selected P4 and carried out UV-melting study with the various RNA targets. […] Pyrene-pyrene interaction is evident from the inverse absorption profiles of P4-T6 and P4-T8 in the 40-70° C. temperature range. Upon heating, the solvophobic effect becomes more pronounced due to the inverse intensity distribution of vibronic transition of pyrene excimer relative to monomer, Ae^o→o/Am^o→o˜0.6, prior to their dissociation upon further heating. […] The Tms of the P4-RNA series follow a positive linear correlation, Y=66+2X, with X being the number of binding-sites in the targets (FIG. 9). […] Such a phenomenon was also observed with PNA-ligand conjugates.

[2] = tested on: normal-length T6 and pathogenic T48 [r(CUG)96] RNA; assay: Competitive binding assay (agarose gel, SYBR-Gold); settings: equimolar binding-sites of T6 and T48, 37° C. for 16 hrs
Protocol: FIG. 12. Selective binding of r(CUGCUG)n-RNA transcripts by P4. The samples were prepared by mixing pre-annealed RNAs with probes at 37° C. for 4 hrs. The ratios of P4 to the total RNA binding-sites were 0 (lane 3), ¼ (lane 4), ½ (lane 5), 1/1 (lane 6); and for the mismatched P5 at 1/1 (lane 7). Competitive Binding Assay: T6 was purchased from IDT. T48, the same as r(CUG)96, was prepared as previous described, except that the DNA template was (CTG)96. T6 and T48 were separately annealed by heating up to 90° C. for 5 min and gradually cooled to room temperature. Probes and RNA targets were mixed at the indicated concentrations and incubated in a physiologically simulated buffer at 37° C. for 4 hr in silicon-coated Eppendorf tubes. The samples were then loaded onto 2% agarose-gel containing IX SYBR-Gold with Tris-borate buffer and electrophoretically separated at 100 V for 15 min. The bands were visualized by UV-Transilluminator. To assess the recognition selectivity of P4 probe, we carried out a competitive binding assay. Equimolar binding-sites of the normal-length T6 and the pathogenic T48 [r(CUG)96, prepared according to our published protocol, were incubated with different concentrations of P4 at 37° C. for 16 hrs. The resulting mixtures were analyzed by agarose-gel and stained with SYBR-Gold for visualization.

[3] = tested on: RNA targets containing r(CUGCUG)-repeats (T1-T8); assay: Steady-state fluorescent measurements of P4-RNA duplexes (pyrene excimer emission); settings: P4 1 μM, equimolar binding sites T1-T8; 37° C., 1 hr
Protocol: (§1) FIG. 10. Fluorescent spectra of P4-RNA duplexes at equimolar concentrations (P4=1 μM; T1=1 μM, T2=½, T4 ¼, T6=⅙, T8 ⅛) following the incubation at 37° C. for 1 hr and excitation at 345 nm. Inset: Fluorescent signals at 480 nm as a function of time following the addition of P4 (1 μM) to T8 (⅛ μM), and P4 (1 μM) to [T1 (1 μM)+T8 (⅛ μM)] at 37° C.
Steady-State Fluorescent Measurements: All steady-state fluorescence samples were prepared by mixing P4-RNA duplexes at the indicated concentrations in a simulated physiological buffer and annealed by incubation at 90° C. for 5 min, followed by a gradual cooling to 37° C. The samples were incubated at 37° C. for 1 hr before the measurements. Steady-state fluorescence data were collected at 37° C. by Cary Eclipse Fluorescence Spectrometer. (εex=350 nm and εem=480 nm) with slit size.
(§2) To further corroborate these findings, we carried out fluorescent measurements under identical conditions. The samples were excited at 340 nm, and the fluorescent signals were recorded from 345 to 650 nm. Characteristic of the pyrene-pyrene excimer formation is the emission at 480 nm (FIG. 10). […] The samples were markedly different under UV-illumination, such that they could be distinguished with the naked eyes (FIG. 11).

[4] = tested on: T8 RNA (r(CUGCUG)-repeats), with or without competing T1; assay: Real-time fluorescent binding kinetics
Protocol: as §1
Real-Time Fluorescent Binding Kinetics: For real-time fluorescent kinetic experiment the samples were prepared as followed: (1) P4 alone, (2) P4, T1 and T8 annealed prior to the measurement, (3) addition of P4 to T8 at 37° C., and (4) addition of P4 to T8 in the presence of T1 at equimolar binding sites. Realtime fluorescence data were collected at 37° C. by Cary Eclipse Fluorescence Spectrometer. (εex=350 nm and εem=480 nm) with slit size.
as §2

[5] = tested on: rCUG^exp-MBNL1 complex (T48 with GST-MBNL1-F1); assay: Analysis of T48-MBNL1 disruption by probe (gel-shift assay); type: biochemical; settings: T48 25 nM, GST-MBNL1-F1 400 nM; increasing probe concentrations
Protocol: FIG. 13. Displacement of MBNL1 from T48 by P4. P-T48 was allowed to form complexes with GST-MBNL1-FI prior to the addition of P4. The samples were prepared in a physiologically relevant buffer at the final T48 and GST-MBNL1-FI concentration of 25 nM and 400 nM, respectively.
Analysis of T48-MBNL1 Disruption by Probe: T48 and GST-MBNL1-F1 were prepared as previously described. Radioisotopically labeled T48 was incubated with GST-MBNL1-F1 in buffer containing 50 mM Tris, 50 mM NaCl, 50 mM KCl and 1 mM MgCl2 (pH 8.0) at the indicated concentrations at 25° C. for 30 minutes. The indicated concentration of P4 was added to T48-MBNL1 complex. The samples were immediately loaded to 1.5% agarose gels with 1× Tris-borate buffer and electrophoretically separated at 100 V for 2 hrs. The bands were visualized by phosphorimaging and quantified with ImageQuant (Molecular Dynamics).
Next, we determined whether P4 can disrupt the rCUG^exp-MBNL1 complex by performing a gel-shift assay. The RNA-protein complex was prepared by incubating 5′-^32P-labelled T48 with MBNL1 at a physiologically relevant condition. Upon confirmation of their binding, P4 was added and the resulting mixtures were incubated at 37° C. for 4 hrs prior to their analysis by nondenaturing PAGE and autoradiography. Formation of the T48-MBNL1 complexes is evident by the smeared patterns observed in lanes 2 through 4 of FIG. 13. […]

Row | Substance | differences in the Tms of RNAs with mismatched probes [1] | recognition selectivity / binding to T48 versus T6 [2] | trend of Tms with number of binding-sites in the targets [1] | further results
1 | H-^LArg-^LLys(Pyr)-CATCAG-^LLys(Pyr)-^LArg-NH2 [P5] | no discernible differences | No evidence of binding | – | –
2 | H-^LArg-^LLys(Pyr)-CTGCTG-^LLys(Pyr)-^LArg-NH2 [P6] | no discernible differences | – | – | –
3 | H-^LArg-^LLys(Pyr)-CAGCAG-^LLys(Pyr)-^LArg-NH2 [P4] | – | able to discriminate the pathogenic T48 from the wt-T12 | monotonically increased with the number of binding-sites | binding cooperativity (UV-melting profiles) ([1]; with T6, T6 1 μM, probe 6 μM, physiologically relevant buffer, comparison of linker lengths P2 through P4): highest degree of binding cooperativity; also recorded: cooperative binding was clearly observed; fluorescent intensities at 480 nm (pyrene-pyrene excimer) with number of binding-sites in RNAs [3]: gradual increase in the fluorescent intensities at 480 nm; hybridization lag-time with competing T1 strand ([4]; P4 1 μM added to T1 1 μM + T8 ⅛ μM (equimolar binding-sites) at 37° C.): 2 min; time to nearly complete hybridization to T8 ([4]; P4 1 μM added to T8 ⅛ μM at 37° C., fluorescence at 480 nm): ≤ 10 min; interaction with single-binding-site RNA ([4]; physiologically simulated condition, T1 competitor): weak and transient; disruption of rCUG^exp-MBNL1 complex / displacement of MBNL1 from T48 [5]: able to disrupt the rCUG^exp-MBNL1 complex
4 | H-^L-Arg-CAGCAG-^LArg-NH2 [P1] | – | – | plateaued at X˜3 | –
